Data published in patent US9067881B2, “4-tolyl-ethynyl-octahydro-indole-1-ester derivatives” (NOVARTIS AG, priority 2011, dated 2015).
In brackets after ≈: the same amount, converted by molar mass.

Columns and labels:
[1] = In-vitro clearance in rat liver microsomes (metabolic stability, compound depletion)
[2] = Solubility in Cl free phosphate buffer pH 6.8; type: physicochemical; settings: aqueous buffer; Cl free phosphate buffer (0.067 M) pH 6.8

Row | SMILES | microsomal CLint at 1 μM [1] | solubility [2]
1 | COC(=O)N1CC[C@@H]2[C@H]1CCC[C@]2(C#Cc1cccc(C)c1)OC(=O)[C@@H](N)CC(C)C [Example 5, (3aR,4S,7aR)-4-((S)-2-Amino-4-methyl-pentanoyloxy)-4-m-tolylethynyl-octahydro-indole-1-carboxylic acid methyl ester] | 48 µL/min/mg | –
2 | COC(=O)N1CC[C@@H]2[C@H]1CCC[C@]2(C#Cc1cccc(C)c1)OC(=O)[C@@H](N)CCSC [Example 6, (3aR,4S,7aR)-4-((S)-2-Amino-4-methylsulfanyl-butyryloxy)-4-m-tolylethynyl-octahydro-indole-1-carboxylic acid methyl ester] | 51 µL/min/mg | –
3 | CCC(=O)O[C@@]1(C#Cc2cccc(C)c2)CCC[C@@H]2[C@H]1CCN2C(=O)OC [Example 14, (3aR,4S,7aR)-4-Propionyloxy-4-m-tolylethynyl-octahydro-indole-1-carboxylic acid methyl ester] | 3.4 µL/min/mg | 9 µg/mL (≈ 24.4 µM)
4 | CCCCCCCCCCCC(=O)O[C@@]1(C#Cc2cccc(C)c2)CCC[C@@H]2[C@H]1CCN2C(=O)OC [Example 19, (3aR,4S,7aR)-4-Dodecanoyloxy-4-m-tolylethynyl-octahydro-indole-1-carboxylic acid methyl ester] | 32 µL/min/mg | < 2 µg/mL
5 | CCCCCCCCCC(=O)O[C@@]1(C#Cc2cccc(C)c2)CCC[C@@H]2[C@H]1CCN2C(=O)OC [Example 20, (3aR,4S,7aR)-4-Decanoyloxy-4-m-tolylethynyl-octahydro-indole-1-carboxylic acid methyl ester] | 5.4 µL/min/mg | < 2 µg/mL
6 | CCCCCCC(=O)O[C@@]1(C#Cc2cccc(C)c2)CCC[C@@H]2[C@H]1CCN2C(=O)OC [Example 23, (3aR,4S,7aR)-4-Heptanoyloxy-4-m-tolylethynyl-octahydro-indole-1-carboxylic acid methyl ester] | 3.4 µL/min/mg | < 2 µg/mL
7 | CCCCCCCCC(=O)O[C@@]1(C#Cc2cccc(C)c2)CCC[C@@H]2[C@H]1CCN2C(=O)OC [Example 24, (3aR,4S,7aR)-4-Nonanoyloxy-4-m-tolylethynyl-octahydro-indole-1-carboxylic acid methyl ester] | 32 µL/min/mg | < 2 µg/mL
8 | CCCCCCCCCCCCC(=O)O[C@@]1(C#Cc2cccc(C)c2)CCC[C@@H]2[C@H]1CCN2C(=O)OC [Example 25, (3aR,4S,7aR)-4-m-Tolylethynyl-4-tridecanoyloxy-octahydro-indole-1-carboxylic acid methyl ester] | 32 µL/min/mg | < 2 µg/mL
9 | CC[C@H](N)C(=O)O[C@@]1(C#Cc2cccc(C)c2)CCC[C@@H]2[C@H]1CCN2C(=O)OC [Example 30, (3aR,4S,7aR)-4-((S)-2-Amino-butyryloxy)-4-m-tolylethynyl-octahydro-indole-1-carboxylic acid methyl ester] | 375 µL/min/mg | –
10 | COC(=O)N1CC[C@@H]2[C@H]1CCC[C@]2(C#Cc1cccc(C)c1)OC(=O)[C@@H](N)Cc1ccccc1 [Example 31, (3aR,4S,7aR)-4-((S)-2-Amino-3-phenyl-propionyloxy)-4-m-tolylethynyl-octahydro-indole-1-carboxylic acid methyl ester] | 262 µL/min/mg | –
11 | CCC[C@H](N)C(=O)O[C@@]1(C#Cc2cccc(C)c2)CCC[C@@H]2[C@H]1CCN2C(=O)OC [Example 32, (3aR,4S,7aR)-4-((S)-2-Amino-pentanoyloxy)-4-m-tolylethynyl-octahydro-indole-1-carboxylic acid methyl ester] | 420 µL/min/mg | –
12 | CC[C@H](C)[C@H](N)C(=O)O[C@@]1(C#Cc2cccc(C)c2)CCC[C@@H]2[C@H]1CCN2C(=O)OC [Example 33, (3aR,4S,7aR)-4-((2S,3S)-2-Amino-3-methyl-pentanoyloxy)-4-m-tolylethynyl-octahydro-indole-1-carboxylic acid methyl ester] | 660 µL/min/mg | –
13 | COC(=O)N1CC[C@@H]2[C@H]1CCC[C@]2(C#Cc1cccc(C)c1)OC(=O)[C@@H](N)CC(C)(C)C [Example 34, (3aR,4S,7aR)-4-((S)-2-Amino-4,4-dimethyl-pentanoyloxy)-4-m-tolylethynyl-octahydro-indole-1-carboxylic acid methyl ester] | 495 µL/min/mg | –
14 | CN[C@@H](C)C(=O)O[C@@]1(C#Cc2cccc(C)c2)CCC[C@@H]2[C@H]1CCN2C(=O)OC [Example 35, (3aR,4S,7aR)-4-((S)-2-Methylamino-propionyloxy)-4-m-tolylethynyl-octahydro-indole-1-carboxylic acid methyl ester] | 50 µL/min/mg | –
15 | CN[C@H](C(=O)O[C@@]1(C#Cc2cccc(C)c2)CCC[C@@H]2[C@H]1CCN2C(=O)OC)C(C)C [Example 36, (3aR,4S,7aR)-4-((S)-3-Methyl-2-methylamino-butyryloxy)-4-m-tolylethynyl-octahydro-indole-1-carboxylic acid methyl ester] | 815 µL/min/mg | –
16 | CC[C@H](C)[C@H](NC)C(=O)O[C@@]1(C#Cc2cccc(C)c2)CCC[C@@H]2[C@H]1CCN2C(=O)OC [Example 37, (3aR,4S,7aR)-4-((2S,3S)-3-Methyl-2-methylamino-pentanoyloxy)-4-m-tolylethynyl-octahydro-indole-1-carboxylic acid methyl ester] | 693 µL/min/mg | –

Row | SMILES | microsomal CLint at 1 μM [1] | solubility [2]
17 | COC(=O)N1CC[C@@H]2[C@H]1CCC[C@]2(C#Cc1cccc(C)c1)OC(=O)Cc1ccccc1 [Example 43, (3aR,4S,7aR)-methyl 4-(2-phenylacetoxy)-4-(m-tolylethynyl)octahydro-1H-indole-1-carboxylate] | 36 µL/min/mg | –
18 | COC(=O)N1CC[C@@H]2[C@H]1CCC[C@]2(C#Cc1cccc(C)c1)OC(=O)c1ccncc1 [Example 45, (3aR,4S,7aR)-methyl 4-(isonicotinoyloxy)-4-(m-tolylethynyl)octahydro-1H-indole-1-carboxylate] | 385 µL/min/mg | < 2 µg/mL
19 | COC(=O)N1CC[C@@H]2[C@H]1CCC[C@]2(C#Cc1cccc(C)c1)OC(=O)c1cccc(C)c1 [Example 46, (3aR,4S,7aR)-methyl 4-(3-methylbenzoyloxy)-4-(m-tolylethynyl)octahydro-1H-indole-1-carboxylate] | 4.4 µL/min/mg | –
20 | COC(=O)N1CC[C@@H]2[C@H]1CCC[C@]2(C#Cc1cccc(C)c1)OC(=O)c1ccc(Br)cc1 [Example 48, (3aR,4S,7aR)-methyl 4-(4-bromobenzoyloxy)-4-(m-tolylethynyl)octahydro-1H-indole-1-carboxylate] | 26 µL/min/mg | –
21 | COC(=O)N1CC[C@@H]2[C@H]1CCC[C@]2(C#Cc1cccc(C)c1)OC(=O)c1cccnc1 [Example 51, (3aR,4S,7aR)-methyl 4-(nicotinoyloxy)-4-(m-tolylethynyl)octahydro-1H-indole-1-carboxylate] | 478 µL/min/mg | < 2 µg/mL
22 | COC(=O)N1CC[C@@H]2[C@H]1CCC[C@]2(C#Cc1cccc(C)c1)OC(=O)c1c(C)cc(C)cc1C [Example 53, (3aR,4S,7aR)-methyl 4-(m-tolylethynyl)-4-(2,4,6-trimethylbenzoyloxy)octahydro-1H-indole-1-carboxylate] | 3.4 µL/min/mg | –
23 | COC(=O)N1CC[C@@H]2[C@H]1CCC[C@]2(C#Cc1cccc(C)c1)OC(=O)c1ccccn1 [Example 54, (3aR,4S,7aR)-4-(Pyridine-2-carbonyloxy)-4-m-tolylethynyl-octahydro-indole-1-carboxylic acid methyl ester] | 167 µL/min/mg | 2 µg/mL (≈ 4.78 µM)
24 | COC(=O)CCC(=O)O[C@@]1(C#Cc2cccc(C)c2)CCC[C@@H]2[C@H]1CCN2C(=O)OC [Example 62, ((3aR,4S,7aR)-1-(methoxycarbonyl)-4-(m-tolylethynyl)octahydro-1H-indol-4-ylmethyl succinate] | – | 164 µg/mL
25 | CCCN(CCC)C(=O)CCC(=O)O[C@@]1(C#Cc2cccc(C)c2)CCC[C@@H]2[C@H]1CCN2C(=O)OC [Example 63, (3aR,4S,7aR)-methyl 4-(4-(dipropylamino)-4-oxobutanoyloxy)-4-(m-tolylethynyl)octahydro-1H-indole-1-carboxylate] | 26 µL/min/mg | 43 µg/mL (≈ 86.6 µM)
26 | CCCNC(=O)CCC(=O)O[C@@]1(C#Cc2cccc(C)c2)CCC[C@@H]2[C@H]1CCN2C(=O)OC [Example 64, (3aR,4S,7aR)-methyl 4-(4-oxo-4-(propylamino)butanoyloxy)-4-(m-tolylethynyl)octahydro-1H-indole-1-carboxylate] | – | 33 µg/mL (≈ 72.6 µM)
27 | COC(=O)CC(=O)O[C@@]1(C#Cc2cccc(C)c2)CCC[C@@H]2[C@H]1CCN2C(=O)OC [Example 66, (3aR,4S,7aR)-1-(methoxycarbonyl)-4-(m-tolylethynyl)octahydro-1H-indol-4-yl methyl malonate] | – | 100 µg/mL (≈ 242 µM)
28 | CCNC(=O)CCC(=O)O[C@@]1(C#Cc2cccc(C)c2)CCC[C@@H]2[C@H]1CCN2C(=O)OC [Example 67, (3aR,4S,7aR)-methyl 4-(4-(ethylamino)-4-oxobutanoyloxy)-4-(m-tolylethynyl)octahydro-1H-indole-1-carboxylate] | – | 123 µg/mL (≈ 279 µM)
29 | CCNC(=O)CCCC(=O)O[C@@]1(C#Cc2cccc(C)c2)CCC[C@@H]2[C@H]1CCN2C(=O)OC [Example 68, (3aR,4S,7aR)-methyl 4-(5-(ethylamino)-5-oxopentanoyloxy)-4-(m-tolylethynyl)octahydro-1H-indole-1-carboxylate] | – | 386 µg/mL (≈ 849 µM)
30 | COC(=O)N1CC[C@@H]2[C@H]1CCC[C@]2(C#Cc1cccc(C)c1)OC(=O)CCCC(=O)NC(C)C [Example 69, (3aR,4S,7aR)-methyl 4-(5-(isopropylamino)-5-oxopentanoyloxy)-4-(m-tolylethynyl)octahydro-1H-indole-1-carboxylate] | – | 28 µg/mL (≈ 59.8 µM)
31 | CCCNC(=O)CCCC(=O)O[C@@]1(C#Cc2cccc(C)c2)CCC[C@@H]2[C@H]1CCN2C(=O)OC [Example 70, (3aR,4S,7aR)-methyl 4-(5-oxo-5-(propylamino)pentanoyloxy)-4-(m-tolylethynyl)octahydro-1H-indole-1-carboxylate] | – | 32 µg/mL (≈ 68.3 µM)
